Source: ChEMBL document CHEMBL1140001, “Hypoxia-driven elimination of thiopurines from their nitrobenzyl prodrugs” (Bioorg Med Chem Lett, 2007)

Columns and labels:
Format in all cases: ADME, cell-based
Conditions in all cases: human
A549 [1] = assay: Metabolic stability in A549 cells assessed as rate of 6-thioguanine production in aerobic condition
A549 [2] = assay: Metabolic stability in A549 cells assessed as rate of 6-thioguanine production in anoxic condition
A549 [3] = assay: Metabolic stability in A549 cells assessed as rate of prodrug loss in anoxic condition
A549 [4] = assay: Metabolic stability in A549 cells assessed as rate of prodrug loss in aerobic condition

Row | Activity (A549 [1]) [nM/min] | Activity (A549 [2]) [nM/min] | Activity (A549 [3]) [nM/min] | Activity (A549 [4]) [nM/min] | Compound
1 | 1.7 | 0 | 39 | 0 | Nc1nc(SCc2ccc([N+](=O)[O-])cc2)c2nc[nH]c2n1
2 | 1.7 | 72 | 100 | 9.5 | CC(C)(Sc1nc(N)nc2[nH]cnc12)c1ccc([N+](=O)[O-])cc1
